Values joined by “and” are separate entries in the source; they are usually repeats but may differ in a detail not shown here. Equal values may be shown once. Toxic doses and inconclusive results are not listed. Cut-off read from the data, not from the text of the source: active = T/C of 150% or more; inactive = T/C below 125%.
Tested on: L1210 leukemia ip in BDF1 mice, survival T/C
Assay: NCI In Vivo Anticancer Drug Screen. Data for tumor model L1210 Leukemia (intraperitoneal) in B6D2F1 (BDF1) mice
Conditions: endpoint: mean survival time, higher = longer survival
Outline: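 Read-out is survival time, reported as the treated-group measurement over the vehicle-control measurement.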

[1] = dose: 100.0 mg/kg/injection, schedule: Q01DX001 (ip), vehicle: carboxymethylcellulose (CMC)
[2] = dose: 100.0 mg/kg/injection, schedule: Q04DX002 (ip), vehicle: gum acacia
[3] = dose: 200.0 mg/kg/injection, schedule: Q01DX001 (ip), vehicle: carboxymethylcellulose (CMC)
[4] = dose: 200.0 mg/kg/injection, schedule: Q04DX002 (ip), vehicle: gum acacia
[5] = dose: 5.0 mg/kg/injection, schedule: Q04DX003 (ip), vehicle: saline with Tween-80
[6] = dose: 10.0 mg/kg/injection, schedule: Q04DX003 (ip), vehicle: saline with Tween-80
[7] = dose: 100.0 mg/kg/injection, schedule: Q04DX003 (ip), vehicle: saline
[8] = dose: 200.0 mg/kg/injection, schedule: Q04DX003 (ip), vehicle: saline
[9] = dose: 100.0 mg/kg/injection, schedule: Q04DX002 (ip), vehicle: Klucel (hydroxypropylcellulose) (HPC)
[10] = dose: 100.0 mg/kg/injection, schedule: Q01DX001 (ip), vehicle: saline
[11] = dose: 200.0 mg/kg/injection, schedule: Q01DX001 (ip), vehicle: saline
[12] = dose: 400.0 mg/kg/injection, schedule: Q01DX001 (ip), vehicle: saline
[13] = dose: 100.0 mg/kg/injection, schedule: Q01DX009 (ip), vehicle: saline with Tween-80
[14] = dose: 200.0 mg/kg/injection, schedule: Q01DX009 (ip), vehicle: saline with Tween-80
[15] = dose: 400.0 mg/kg/injection, schedule: Q01DX009 (ip), vehicle: saline with Tween-80
[16] = dose: 100.0 mg/kg/injection, schedule: Q04DX003 (ip), vehicle: saline with Tween-80
[17] = dose: 200.0 mg/kg/injection, schedule: Q04DX003 (ip), vehicle: saline with Tween-80
[18] = dose: 400.0 mg/kg/injection, schedule: Q04DX003 (ip), vehicle: saline with Tween-80
[19] = dose: 75.0 mg/kg/injection, schedule: Q04DX002 (ip), vehicle: Klucel (hydroxypropylcellulose) (HPC)
[20] = dose: 150.0 mg/kg/injection, schedule: Q04DX002 (ip), vehicle: Klucel (hydroxypropylcellulose) (HPC)
[21] = dose: 300.0 mg/kg/injection, schedule: Q04DX002 (ip), vehicle: Klucel (hydroxypropylcellulose) (HPC)

Measured: T/C

Cc1ccc(S(=O)(=O)F)cc1C(=O)O
inactive: [1] 96 % of control and 106 % of control | dose: 100.0 mg/kg/injection, schedule: Q01DX009 (ip), vehicle: carboxymethylcellulose (CMC) 93 % of control and 102 % of control | [2] 101 % of control and 111 % of control | dose: 100.0 mg/kg/injection, schedule: Q04DX003 (ip), vehicle: carboxymethylcellulose (CMC) 93 % of control and 98 % of control | [3] 95 % of control and 100 % of control | dose: 200.0 mg/kg/injection, schedule: Q01DX009 (ip), vehicle: carboxymethylcellulose (CMC) 99 % of control and 100 % of control | [4] 101 % of control and 104 % of control | dose: 200.0 mg/kg/injection, schedule: Q04DX003 (ip), vehicle: carboxymethylcellulose (CMC) 102 % of control | dose: 400.0 mg/kg/injection, schedule: Q04DX002 (ip), vehicle: gum acacia 107 % of control | dose: 400.0 mg/kg/injection, schedule: Q04DX003 (ip), vehicle: carboxymethylcellulose (CMC) 93 % of control

O=C1[O][Hg][c]2cccc3cccc1c23
inactive: [5] 101 % of control | [6] 95 % of control

CC1(C)OC2C(CNCCO)OC(OCc3ccccc3)C2O1 (stereo not drawn)
inactive: dose: 50.0 mg/kg/injection, schedule: Q04DX003 (ip), vehicle: saline 102 % of control | [7] 94 % of control | [8] 88 % of control

Nc1nnnn1-c1ccccc1
inactive: [9] 102 % of control | dose: 200.0 mg/kg/injection, schedule: Q04DX002 (ip), vehicle: Klucel (hydroxypropylcellulose) (HPC) 102 % of control | dose: 400.0 mg/kg/injection, schedule: Q04DX002 (ip), vehicle: Klucel (hydroxypropylcellulose) (HPC) 91 % of control

O=C(O)C12C3(Cl)C4(Cl)C(O)(O)C5(Cl)C3(Cl)C1(Cl)C5(Cl)C42Cl (stereo not drawn)
inactive: dose: 50.0 mg/kg/injection, schedule: Q01DX001 (ip), vehicle: saline 102 % of control | [10] 105 % of control | [11] 96 % of control | [12] 110 % of control

COc1ccccc1NC(=O)OCC#CCOC(=O)Nc1ccccc1OC
inactive: dose: 100.0 mg/kg/injection, schedule: Q04DX003 (ip), vehicle: Klucel (hydroxypropylcellulose) (HPC) 91 % of control | dose: 200.0 mg/kg/injection, schedule: Q04DX003 (ip), vehicle: Klucel (hydroxypropylcellulose) (HPC) 95 % of control | dose: 400.0 mg/kg/injection, schedule: Q04DX003 (ip), vehicle: Klucel (hydroxypropylcellulose) (HPC) 91 % of control

Cc1cc(C)cc(OC(=O)/C=C/C(=O)Oc2cc(C)cc(C)c2)c1
inactive: [13] 105 % of control | [14] 100 % of control | [15] 102 % of control

CC(=O)Oc1ccc(OC(C)=O)c2c1C(=O)CCCC2=O
inactive: [13] 101 % of control | [16] 91 % of control | [14] 93 % of control | [17] 91 % of control | [15] 96 % of control | [18] 96 % of control

O=c1[nH]c2c(Cl)cc(Cl)cc2c2ccccc12
inactive: [1] 87 % of control | [3] 92 % of control | dose: 400.0 mg/kg/injection, schedule: Q01DX001 (ip), vehicle: carboxymethylcellulose (CMC) 100 % of control

COc1c2c(c(OC)c3c(=O)c4ccccc4[nH]c13)OCO2
inactive: dose: 62.5 mg/kg/injection, schedule: Q01DX001 (ip), vehicle: carboxymethylcellulose (CMC) 100 % of control | dose: 125.0 mg/kg/injection, schedule: Q01DX001 (ip), vehicle: carboxymethylcellulose (CMC) 97 % of control | dose: 250.0 mg/kg/injection, schedule: Q01DX001 (ip), vehicle: carboxymethylcellulose (CMC) 105 % of control | dose: 500.0 mg/kg/injection, schedule: Q01DX001 (ip), vehicle: carboxymethylcellulose (CMC) 97 % of control

CCCCNC(=O)CC(C)C(=O)O (stereo not drawn)
inactive: [13] 100 % of control | [14] 98 % of control | [15] 100 % of control

CCCCCCCCCC(N)C(=O)O (stereo not drawn)
inactive: dose: 50.0 mg/kg/injection, schedule: Q04DX002 (ip), vehicle: gum acacia 100 % of control | [2] 98 % of control | [4] 100 % of control

CCN(CC)C(=S)S.[Cu+2]
inactive: [10] 105 % of control | [11] 102 % of control | [12] 105 % of control

CCN(CC)CCC(CC=C(C)C)(C(N)=O)c1cccc2ccccc12 (stereo not drawn)
inactive: [5] 98 % of control | [6] 100 % of control | dose: 20.0 mg/kg/injection, schedule: Q04DX003 (ip), vehicle: saline with Tween-80 109 % of control

CP(C)(=S)P(C)(C)=S
inactive: dose: 25.0 mg/kg/injection, schedule: Q04DX002 (ip), vehicle: Klucel (hydroxypropylcellulose) (HPC) 98 % of control | dose: 50.0 mg/kg/injection, schedule: Q04DX002 (ip), vehicle: Klucel (hydroxypropylcellulose) (HPC) 94 % of control | [9] 95 % of control and 112 % of control

NS(=O)(=O)c1ccc(N/N=c2\c(=O)c(=O)c3ccccc3c2=O)cc1
inactive: dose: 100.0 mg/kg/injection, schedule: Q01DX001 (ip), vehicle: other 101 % of control | dose: 100.0 mg/kg/injection, schedule: Q04DX003 (ip), vehicle: other 95 % of control | dose: 200.0 mg/kg/injection, schedule: Q01DX001 (ip), vehicle: other 90 % of control | dose: 200.0 mg/kg/injection, schedule: Q04DX003 (ip), vehicle: other 108 % of control | dose: 400.0 mg/kg/injection, schedule: Q01DX001 (ip), vehicle: other 93 % of control | dose: 400.0 mg/kg/injection, schedule: Q04DX003 (ip), vehicle: other 90 % of control

CCC/C(C)=N\O
inactive: [16] 102 % of control | [17] 111 % of control | [18] 100 % of control

O=S(Cc1ccccc1)c1ccccc1 (stereo not drawn)
inactive: [19] 115 % of control | [20] 100 % of control | [21] 93 % of control

C=C(C)CN=C=S
inactive: dose: 25.0 mg/kg/injection, schedule: Q01DX009 (ip), vehicle: saline with Tween-80 100 % of control | dose: 25.0 mg/kg/injection, schedule: Q04DX003 (ip), vehicle: saline with Tween-80 101 % of control | dose: 50.0 mg/kg/injection, schedule: Q01DX009 (ip), vehicle: saline with Tween-80 98 % of control | dose: 50.0 mg/kg/injection, schedule: Q04DX003 (ip), vehicle: saline with Tween-80 109 % of control | [13] 104 % of control | [16] 103 % of control

COc1cccc(C(c2ccccc2)C(CC(=O)O)CC(=O)O)c1 (stereo not drawn)
inactive: [19] 101 % of control | [20] 108 % of control | [21] 97 % of control

O=C(NNc1c(Cl)cc(Cl)cc1Cl)C(O)C(O)C(O)C(O)CO (stereo not drawn)
inactive: [7] 91 % of control | [8] 87 % of control | dose: 400.0 mg/kg/injection, schedule: Q04DX003 (ip), vehicle: saline 87 % of control

CC(=O)Nc1ccc(C=O)cc1
inactive: [10] 100 % of control | [11] 97 % of control | [12] 116 % of control
